Measured values taken from PubChem BioAssay AID588398 (Broad Institute, 2011).
Results filed as inconclusive are left out.

Assay: TES1-eGFP NF-kB reporter inhibition versus Tet-On dsRED, dose response, selectivity assay for LMP1 NF-kB inhibitor project, imaging, HEK293T, dual-color eGFP/dsRED, cherry-picks (AID 588398)
Conditions: 48 h, dsRED channel counter-screen

Compound	AC50
CC(=NNC(=S)Nc1ccccc1)c1ccccn1	1.37 µM
COc1cccc(/C=N/Nc2nccnc2Cl)c1O	12.1 µM
O=C(N/N=C/c1ccc[nH]1)c1ccc(COc2cccc3cccnc23)cc1	19.2 µM
O=C(N/N=C/c1sc2ccccc2c1O)c1cccc2ccccc12	4.27 µM
CC(=NNC(=S)N1CC2CCC(CC2)C1)c1nccs1	4.15 µM
COc1ccc(-n2c(C)c(C(C)=O)c3cc(OC(C)=O)ccc32)cc1	1 µM
Cc1ccc(-c2csc(=Nc3cccnc3)n2CCCn2ccnc2)cc1C	5.1 µM
O=[N+]([O-])c1ccc2ncnc(N3CCN(Cc4ccc5c(c4)OCO5)CC3)c2c1	2.87 µM
COc1ccc(C=C2CS(=O)(=O)CC(=Cc3ccc(OC)cc3)C2=O)cc1	1.61 µM
CCn1c2ccccc2c2cc(/C=N/n3c(-c4cc(C)[nH]n4)n[nH]c3=S)ccc21	0.862 µM
CCN(CC)S(=O)(=O)c1ccc(N/N=C/c2ccc(O)cc2O)nc1	4.19 µM
CCOc1ccc(Nc2ncnc3ccc([N+](=O)[O-])cc23)cc1	1.93 µM
CNc1cccnc1C=NNC(N)=S	12.8 µM
CCC(=O)NC(c1cc(Cl)c2cccnc2c1O)C1CC1 (stereo not given)	13 µM
O=Cc1ccc(-c2cccs2)s1	2.71 µM
C#CCN(C[C@@H]1[C@@H](OC(=O)NCC2CCCCC2)[C@@H](OC(=O)NCC2CCCCC2)Cn2c(=O)ccc(=O)n21)S(=O)(=O)c1ccc(C)cc1	2.83 µM
CC1=C(C(=O)OCc2ccc3c(c2)OCO3)C(c2ccc(Cl)cc2)NC(=O)N1 (stereo not given)	0.1 µM
COc1cccc(/C=N/NC(=O)c2[nH]nc3c2CCc2ccccc2-3)c1O	5.87 µM
COc1ccc(-c2csc(Nc3cccc(C)n3)n2)cc1OC	> 19.5 µM
N#Cc1ncc(N=Cc2ccc(N(CCCl)CCCl)cc2)s1	12.6 µM
CC[C@]1(C(=O)OC)[C@H]2C(=O)N(Cc3ccccc3)C(=O)[C@H]2[C@H]2CN=C(SCc3ccc(Cl)cc3)N21	1.32 µM
CCOC(=O)c1c(-n2cccc2)sc2c1CCCC2=O	11 µM
O=C(N/N=C/c1ccc(O)cc1O)c1ccc(CN2C(=O)c3cccc4cccc2c34)cc1	12.7 µM
CC1Cc2ccccc2N1c1ncnc(N)c1[N+](=O)[O-] (stereo not given)	0.411 µM
Oc1ccc2ccccc2c1N=Nc1ccccn1	7.53 µM

Compound	AC50
COc1ccc(-c2csc3ncnc(NCCCO)c23)cc1	4.81 µM
O=C(c1ccccc1)C(CCC(CN1CCOCC1)C(=O)c1ccccc1)CN1CCOCC1 (stereo not given)	1.99 µM
O=C(N/N=C/c1cc2c3c(c1O)CCCN3CCC2)c1ccccc1O	8.25 µM
CC[C@]1(C(=O)OC)[C@H]2C(=O)N(Cc3ccccc3)C(=O)[C@H]2[C@H]2CN=C(SCc3ccc(C#N)cc3)N21	2.82 µM
COc1ccc(N2Cc3ccccc3C2=O)cc1	> 19.5 µM
O=C(NN=Cc1ccc(N(CCCl)CCCl)cc1Cl)c1cccnc1	1.58 µM
CCn1c2ccccc2c2cc(/C=N/NC(=O)c3cc(O)cc(O)c3)ccc21	2.14 µM
CC(=NNC(=S)N1CCCC1)c1ccccn1	17.8 µM
Cc1nn(-c2ccccc2)c(Cl)c1C1C(C#N)=C(N)Oc2n[nH]c(C)c21 (stereo not given)	11.5 µM
CCCC(=O)NC(c1ccc(C(C)C)cc1)c1ccc2cccnc2c1O (stereo not given)	4.16 µM
COc1ccc(-n2c(C)c([N+](=O)[O-])c3ccc(O)c(CN(C)C)c32)cc1	0.665 µM
COC(=O)[C@@]1(C)[C@H]2C(=O)N(Cc3ccccc3)C(=O)[C@H]2[C@H]2CN=C(SCc3ccc(Cl)cc3)N21	2.41 µM
O=S(=O)(c1ccc2c(c1)C(=NO)c1cc(S(=O)(=O)N3CCCCC3)ccc1-2)N1CCCCC1	> 19.5 µM
CC(=NNc1nc2ccccc2o1)c1cc2ccccc2cn1	3.99 µM
CN(CCNC(=O)C1CCN(S(=O)(=O)N2CCOCC2)CC1)CCc1ccccc1	> 19.5 µM
Cc1ccc(C(=O)Nc2cccc(C(F)(F)F)c2)cc1Nc1ncnc2nc[nH]c12	9.97 µM
CCn1c2ccccc2c2cc(/C=N/NC(=O)c3ccncc3)ccc21	1.68 µM
CCC(C)Nc1nc(-c2ccccn2)nc2ccccc12 (stereo not given)	8.45 µM
CCOc1ccc(/C=C/[N+](=O)[O-])c2ccccc12	4.38 µM
COc1cc([C@@H]2c3cc4c(cc3[C@@H](O[C@@H]3O[C@@H]5CO[C@@H](C)O[C@H]5[C@H](O)[C@H]3O)[C@H]3COC(=O)[C@H]23)OCO4)cc(OC)c1O	14.5 µM
CCOC(=O)/C=C(\C)Sc1cc(=O)oc2ccccc12	8.75 µM
NC(=S)NN=Cc1nccc2c(C(F)(F)C(F)(F)C(F)(F)F)cccc12	1.27 µM
O=C(N/N=C/c1c(O)ccc2ccccc12)c1cccnc1	4.3 µM
Cc1cc(N2CCOCC2)c2c(N)c(Br)cc(C)c2n1	3.34 µM
Cc1cc(=O)[nH]c(NN=Cc2cc(Br)ccc2O)n1	8.82 µM

Compound	AC50
N#CC(C#N)c1ccnc2ccccc12	6.14 µM
Cc1cc(C)nc(N/C(=N\S(=O)(=O)Cc2ccccc2)Nc2ccccc2Br)n1	18.1 µM
Cc1nn(-c2ccccc2)c(Cl)c1C(=O)N1CCN(c2ncnc3c2cnn3-c2ccccc2)CC1	12.9 µM
NC(=S)NN=Cc1nccc2c(C(F)(F)F)cccc12	4.06 µM
OCCCNc1nccc(-c2cc(Nc3cccc(Cl)c3)ncn2)n1	4.72 µM
Oc1ccc(C=NNC(=S)Nc2ccccc2)nc1	11.1 µM
Cc1[nH]n(-c2ccc(Br)cc2)c(=O)c1/C=N/NC(=O)c1ccccc1	11.2 µM
CCCC(=O)NC(c1ccc(C)cc1)c1ccc2cccnc2c1O (stereo not given)	4.12 µM
C=C1C(=O)C2=CC1CCC(=O)C1(C)CCC(OC(C)=O)C(C)(C)C1CC2O (stereo not given)	2.73 µM
O=C(Nc1ccc(C(=O)N2CCOCC2)cc1)Nc1cccc(C(F)(F)F)c1	0.966 µM
Cc1ccccc1C(=O)N1CCN(c2ccc(NC(=O)CSc3ccc(Cl)cc3)cc2)CC1	0.253 µM
CC1CCN(C(=O)/C(=C\c2cccs2)NC(=O)c2ccccc2)CC1	> 19.5 µM
CS(=O)(=O)c1ccc(Sc2nc3ccccc3s2)c([N+](=O)[O-])c1	3.22 µM
C#CCN(C[C@@H]1[C@@H](OC(=O)NCc2ccccc2F)[C@@H](OC(=O)NCc2ccccc2F)Cn2c(=O)ccc(=O)n21)S(=O)(=O)c1ccc(C)cc1	3.9 µM
NC(=O)c1sc2nccc(Nc3ccccc3)c2c1N	4.04 µM
COc1ccc(N/N=C/c2c(C(=O)O)ccc3ccccc23)cc1	12.4 µM
NC(=S)N/N=C/c1ncc(C(F)(F)F)cc1Cl	12.1 µM
C[n+]1c2n(c3ccccc31)N=C(c1cc(C(C)(C)C)c(O)c(C(C)(C)C)c1)CS2	10.8 µM
Cc1nnc(SCC(=O)N2CCC(c3noc4ccc(F)cc34)CC2)s1	1.69 µM
O=C(CF)N(O)c1ccc(C=Cc2ccccc2)cc1	1.51 µM
C=CCn1c(C)c(C(C)=O)c(N2CCN(C(c3ccccc3)c3ccccc3)CC2)nc1=S	> 19.5 µM
Cc1cc(C)n(-c2ccc(NN=C(C#N)C#N)cc2)n1	5.01 µM
CC(=NNC(=S)Nc1ccccc1Cl)c1ccccn1	1.37 µM
CN1CCN(/N=C/c2ccc(N(c3ccccc3)c3ccccc3)cc2)CC1	0.505 µM
COc1ccc(-c2csc3ncnc(Sc4nnnn4C)c23)cc1	10.5 µM

Compound	AC50
CC(=NNc1nc2ccccc2s1)c1ncccn1	7.33 µM
c1ccc(C(=NNc2nc3ccccc3s2)c2ccccn2)cc1	1.48 µM
S=C(NN=Cc1ccccn1)Nc1ccccn1	> 19.5 µM
COC(=O)[C@@]1(Cc2ccccc2)[C@H]2C(=O)N(Cc3ccccc3)C(=O)[C@H]2[C@H]2CN=C(SCc3ccc(Cl)cc3)N21	2.49 µM
CC(=O)NC(c1ccc(Cl)cc1Cl)c1ccc2cccnc2c1O (stereo not given)	5.82 µM
CC(C)(O)C#Cc1ccc([C@@H]2C[C@H]3CN(c4ccccc4)C(=O)[C@]34CCCN24)s1	14.9 µM
COc1cccc(/C=N/Nc2ncnc(Cl)c2N)c1O	3.08 µM
CC(=C/c1ccccc1)/C=N/n1c(-c2ccncc2)n[nH]c1=S	1.3 µM
CCC(=O)NC(c1ccc(Cl)cc1Cl)c1ccc2cccnc2c1O (stereo not given)	4.23 µM
CC(=O)NC(c1ccc(Cl)cc1)c1ccc2cccnc2c1O (stereo not given)	4.14 µM
C/C(=N/NC(=O)c1ccc(C(C)(C)C)cc1)c1ccccn1	14.3 µM
O=c1c(O)c(-c2ccc(O)c(O)c2)oc2cc(O)cc(O)c12	> 19.5 µM
Cc1ccc2[nH]c3c(c2c1)CCCC3NC(=O)CCl (stereo not given)	3.25 µM
CCCN(CC)c1ncnc2[nH]ncc12	1.41 µM
CC1CC(C)C(=O)C(C(CC2CC(=O)NC(=O)C2)OC(=O)CC(=O)c2ccccc2)C1 (stereo not given)	5.02 µM
CCC(=O)NC(c1ccc(C)cc1)c1ccc2cccnc2c1O (stereo not given)	3.61 µM
CCN(CC)c1ccc(/C=N/NC(=O)c2ccc3nc[nH]c3c2)c(O)c1	16.9 µM
N#CC(C#N)=NNc1ccc(-n2ccc(C(F)(F)F)n2)cc1	6.47 µM
c1nc(NCc2ccc3c(c2)OCO3)c2cc(-c3ccoc3)ccc2n1	1.56 µM
CCCCC(=O)NC(c1ccc(OC)c(OC)c1)c1ccc2cccnc2c1O (stereo not given)	13.6 µM
CCN1CCN(Cc2ccc(NC(=O)c3ccc(C)c(NC(=O)c4ccno4)c3)cc2C(F)(F)F)CC1	0.0579 µM
CN1C(=O)N(C)c2ccc(C=O)c3cccc1c23	12.9 µM
COc1cccc(/C=N/Nc2nc3ccccc3[nH]2)c1O	12 µM
CC(=NNc1nc2ccccc2o1)c1ncccn1	1.13 µM
COc1cc(C=C2CCCC(=Cc3ccc(OCC4CO4)c(OC)c3)C2=O)ccc1OCC1CO1 (stereo not given)	8.08 µM
